The record followed here is US12139520B2 (priority 2020, dated 2024).

In assay [1] the target is T1, hAMY3 receptor (Homo sapiens, UniProt O60896+P30988).
T1 sequence (P30988 25-474): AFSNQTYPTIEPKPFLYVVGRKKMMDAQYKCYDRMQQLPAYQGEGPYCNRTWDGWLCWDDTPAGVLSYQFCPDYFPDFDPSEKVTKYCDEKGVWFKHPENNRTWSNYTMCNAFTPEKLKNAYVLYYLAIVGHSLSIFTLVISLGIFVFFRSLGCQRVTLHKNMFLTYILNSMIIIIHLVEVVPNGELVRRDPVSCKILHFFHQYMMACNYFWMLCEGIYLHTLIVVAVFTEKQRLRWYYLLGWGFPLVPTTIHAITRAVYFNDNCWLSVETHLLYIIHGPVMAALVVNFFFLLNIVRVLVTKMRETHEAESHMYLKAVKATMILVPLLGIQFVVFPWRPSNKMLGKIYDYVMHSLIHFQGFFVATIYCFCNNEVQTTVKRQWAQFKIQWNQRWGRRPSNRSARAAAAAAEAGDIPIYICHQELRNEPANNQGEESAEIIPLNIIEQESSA
T1 sequence (O60896 24-148 partner): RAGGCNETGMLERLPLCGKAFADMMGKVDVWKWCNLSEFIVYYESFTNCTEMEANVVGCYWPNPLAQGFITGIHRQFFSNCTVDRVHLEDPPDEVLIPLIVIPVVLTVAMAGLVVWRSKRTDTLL
Description: cAMP assay for in vitro receptor activation, hAMY3-R. The class given is cell-based. The conditions noted are these: cAMP assay, hAMY3 receptor; read-out: hAMY3R EC50. The method in brief:
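Graded compound concentrations were applied for 30 min at room temperature to stably hAMY3-expressing cells in DPBS, 0.05% casein, 0.5 mM IBMX; cAMP detected by TR-FRET.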
A general note: Changes in cAMP serve as a functional read-out for many G protein-coupled receptors.

For assay [2], the target named is hAM1 receptor (Homo sapiens, UniProt O60895+Q16602). The assay is described as follows: cAMP assay for in vitro receptor activation, hAM1-R. The class given is cell-based. The conditions noted are these: cAMP assay, hAM1 receptor; read-out: hAM1R EC50. The method in brief: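 A subcloned monoclonal line stably expressing hAM1 receptor is thawed and plated at 8000 cells/well. The assay buffer is DPBS with 0.05% casein and 0.5 mM IBMX, and receptor activation is followed by cAMP levels.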
Chain of hAM1 receptor (Q16602 23-461): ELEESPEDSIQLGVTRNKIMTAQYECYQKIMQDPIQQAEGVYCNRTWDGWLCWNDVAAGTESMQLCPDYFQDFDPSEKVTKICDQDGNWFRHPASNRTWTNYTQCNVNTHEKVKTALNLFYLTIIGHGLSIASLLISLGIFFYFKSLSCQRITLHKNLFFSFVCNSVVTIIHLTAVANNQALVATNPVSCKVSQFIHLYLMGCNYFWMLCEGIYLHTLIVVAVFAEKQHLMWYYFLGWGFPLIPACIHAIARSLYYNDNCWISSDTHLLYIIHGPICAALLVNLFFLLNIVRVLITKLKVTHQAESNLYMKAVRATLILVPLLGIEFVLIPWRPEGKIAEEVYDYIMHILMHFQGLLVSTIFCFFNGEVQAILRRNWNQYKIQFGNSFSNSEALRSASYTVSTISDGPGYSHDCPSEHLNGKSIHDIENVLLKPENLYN
Chain of hAM1 receptor (O60895 43-175 partner): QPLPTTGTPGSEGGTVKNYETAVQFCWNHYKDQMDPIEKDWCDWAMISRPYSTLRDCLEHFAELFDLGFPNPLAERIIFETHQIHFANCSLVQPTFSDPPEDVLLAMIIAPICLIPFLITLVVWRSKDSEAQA

pEC50: −log10 of the molar value. Numbered stars: 1 amine (or outer) side, 2 acyl side, 3 side chain; on linkers, the order of the positions; unused ones are H or OH. Bridge positions count the residues as written; N and C are the ends. Square brackets hold non-standard residues; d marks the D form. Peptide text beside a SMILES is read from it. * marks the point of attachment. C20 diacid = O=C(O)CCCCCCCCCCCCCCCCCCC(=O)*; γGlu = O=C(O)[C@H](CCC(=O)[*:2])N[*:1]; Hyp = O=C(O)[C@@H]1C[C@@H](O)CN1

What is called pEC50 is the EC50 on a negative log10 scale, so that one unit is a factor of ten. For the compound `CC[C@H](C)[C@H](NC(=O)[C@H](CCC(N)=O)NC(=O)[C@H](Cc1c[nH]cn1)NC(=O)[C@H](C)NC(=O)[C@H](CC(C)C)NC(=O)[C@H](CCCNC(=N)N)NC(=O)[C@H](CCC(N)=O)NC(=O)[C@@H](NC(=O)[C@@H](NC(=O)[C@@H]1CSSC[C@H](NC(=O)[C@@H](N)CCCCN)C(=O)N[C@@H](CC(N)=O)C(=O)N[C@@H]([C@@H](C)O)C(=O)N[C@@H](C)C(=O)N[C@@H]([C@@H](C)O)C(=O)N1)[C@@H](C)O)C(C)C)C(=O)N[C@@H](Cc1ccc(O)cc1)C(=O)N[C@@H](CCC(N)=O)C(=O)N[C@@H](Cc1ccccc1)C(=O)N[C@H](C(=O)N[C@@H](CC(=O)O)C(=O)N[C@@H](CCCCN)C(=O)N[C@@H](CC(=O)O)C(=O)N[C@@H](CCCCN)C(=O)N[C@@H](CC(=O)O)C(=O)N[C@@H](CC(N)=O)C(=O)N[C@H](C(=O)N[C@@H](C)C(=O)N1CCC[C@H]1C(=O)N[C@H](C(=O)N[C@@H](CC(N)=O)C(=O)N[C@H](C(=O)NCC(=O)N[C@@H](CO)C(=O)N[C@@H](CC(N)=O)C(=O)NCC(=O)N1C[C@H](O)C[C@H]1C(N)=O)C(C)C)[C@@H](C)O)C(C)C)[C@@H](C)O` [compound 31] (H-KCNTATCTVQRLAHQIYQFTDKDKDNVAPTNVGSNG[Hyp]-NH2; disulfide 2-7; N-terminus assumed), the figures for the pEC50 in assay [1] and in assay [2] were 11.10 and less than 5.30, respectively.
On to `CC[C@H](C)[C@H](NC(=O)[C@H](CCC(N)=O)NC(=O)[C@H](Cc1c[nH]cn1)NC(=O)[C@H](C)NC(=O)[C@H](CC(C)C)NC(=O)[C@H](CCCNC(=N)N)NC(=O)[C@H](CCC(N)=O)NC(=O)[C@@H](NC(=O)[C@@H](NC(=O)[C@@H]1CSSC[C@H](NC(=O)[C@@H](N)CCCCN)C(=O)N[C@@H](CC(N)=O)C(=O)N[C@@H]([C@@H](C)O)C(=O)N[C@@H](C)C(=O)N[C@@H]([C@@H](C)O)C(=O)N1)[C@@H](C)O)C(C)C)C(=O)N[C@@H](Cc1ccc(O)cc1)C(=O)N[C@@H](CCC(N)=O)C(=O)N[C@@H](Cc1ccccc1)C(=O)N[C@H](C(=O)N[C@@H](CC(=O)O)C(=O)N[C@@H](CCCCN)C(=O)N[C@@H](CC(=O)O)C(=O)N[C@@H](CCCCN)C(=O)N[C@@H](CC(=O)O)C(=O)N[C@@H](CC(N)=O)C(=O)N[C@H](C(=O)N[C@@H](C)C(=O)N1CCC[C@H]1C(=O)N1CCC[C@H]1C(=O)N[C@H](C(=O)N[C@@H](CC(N)=O)C(=O)N[C@H](C(=O)NCC(=O)N[C@@H](CO)C(=O)N[C@@H](CC(N)=O)C(=O)NCC(=O)N1C[C@H](O)C[C@H]1C(N)=O)C(C)C)[C@@H](C)O)C(C)C)[C@@H](C)O` [compound 75] (H-KCNTATCTVQRLAHQIYQFTDKDKDNVAPPTNVGSNG[Hyp]-NH2; disulfide 2-7; N-terminus assumed), for which the pEC50 in assay [1] is 10.89; in assay [2], less than 5.30.
`CC[C@H](C)[C@H](NC(=O)[C@H](CCC(N)=O)NC(=O)[C@H](Cc1c[nH]cn1)NC(=O)[C@H](C)NC(=O)[C@H](CC(C)C)NC(=O)[C@H](CCCNC(=N)N)NC(=O)[C@H](CCC(N)=O)NC(=O)[C@@H](NC(=O)[C@@H](NC(=O)[C@@H]1CSSC[C@H](NC(=O)[C@H](CCCCN)NC(=O)CC[C@H](NC(=O)CCCCCCCCCCCCCCCCCCC(=O)O)C(=O)O)C(=O)N[C@@H](CC(N)=O)C(=O)N[C@@H]([C@@H](C)O)C(=O)N[C@@H](C)C(=O)N[C@@H]([C@@H](C)O)C(=O)N1)[C@@H](C)O)C(C)C)C(=O)N[C@@H](CCC(N)=O)C(=O)N[C@@H](CCC(N)=O)C(=O)N[C@@H](Cc1ccccc1)C(=O)N[C@H](C(=O)N[C@@H](CC(=O)O)C(=O)N[C@@H](CCCCN)C(=O)N[C@@H](CC(=O)O)C(=O)N[C@@H](CCCCN)C(=O)N[C@@H](CC(=O)O)C(=O)N[C@@H](CC(N)=O)C(=O)N[C@H](C(=O)N[C@@H](C)C(=O)N1CCC[C@H]1C(=O)N1CCC[C@H]1C(=O)N[C@H](C(=O)N[C@@H](CC(N)=O)C(=O)N[C@H](C(=O)NCC(=O)N[C@@H](CO)C(=O)N[C@@H](CC(N)=O)C(=O)NCC(=O)N1C[C@H](O)C[C@H]1C(N)=O)C(C)C)[C@@H](C)O)C(C)C)[C@@H](C)O` [compound 35] ({C20 diacid-γGlu}-KCNTATCTVQRLAHQIQQFTDKDKDNVAPPTNVGSNG[Hyp]-NH2; disulfide 2-7): the pEC50 is 11.05 in assay [1] and less than 5.30 in assay [2].
On to `CC[C@H](C)[C@H](NC(=O)[C@H](CCC(N)=O)NC(=O)[C@H](CC(=O)O)NC(=O)[C@H](C)NC(=O)[C@H](CC(C)C)NC(=O)[C@H](CCCNC(=N)N)NC(=O)[C@H](CC(N)=O)NC(=O)[C@@H](NC(=O)[C@@H](NC(=O)[C@@H]1CSSC[C@H](NC(=O)[C@@H](N)CCCNC(=N)N)C(=O)N[C@@H](CC(N)=O)C(=O)N[C@@H](C)C(=O)N[C@@H](CO)C(=O)N[C@@H]([C@@H](C)O)C(=O)N1)[C@@H](C)O)C(C)C)C(=O)N[C@H](C(=O)N[C@@H](CCC(N)=O)C(=O)N[C@@H](Cc1ccccc1)C(=O)N[C@@H](CO)C(=O)N[C@@H](CC(N)=O)C(=O)N[C@@H](CCCCN)C(=O)N[C@@H](CC(=O)O)C(=O)N[C@@H](CCCCN)C(=O)N[C@@H](C)C(=O)N[C@@H](CCC(N)=O)C(=O)N[C@H](C(=O)N[C@@H](CO)C(=O)N1CCC[C@H]1C(=O)N1CCC[C@H]1C(=O)N[C@H](C(=O)N[C@@H](CCC(=O)O)C(=O)N[C@H](C(=O)NCC(=O)N1CCC[C@H]1C(=O)N[C@@H](CC(N)=O)C(=O)N[C@@H](CO)C(=O)N1C[C@H](O)C[C@H]1C(N)=O)C(C)C)[C@@H](C)O)C(C)C)[C@@H](C)O` [compound 9] (H-RCNASTCTVNRLADQITQFSNKDKAQVSPPTEVGPNS[Hyp]-NH2; disulfide 2-7; N-terminus assumed), for which the figures for the negative-log EC50 (pEC50) in assay [1] and in assay [2] were 11.22 and less than 5.30, respectively.
As to `CC[C@H](C)[C@H](NC(=O)[C@H](C)NC(=O)CNC(=O)[C@H](Cc1ccccc1)NC(=O)[C@H](CC(N)=O)NC(=O)[C@H](CC(N)=O)NC(=O)[C@H](CO)NC(=O)[C@H](CO)NC(=O)[C@H](Cc1c[nH]cn1)NC(=O)[C@@H](NC(=O)[C@H](CC(C)C)NC(=O)[C@H](Cc1ccccc1)NC(=O)[C@H](CC(N)=O)NC(=O)[C@H](C)NC(=O)[C@H](CC(C)C)NC(=O)[C@H](CCCNC(=N)N)NC(=O)[C@H](CCC(N)=O)NC(=O)[C@@H](NC(=O)[C@H](C)NC(=O)[C@@H]1CSSC[C@H](NC(=O)[C@@H](N)CCCCN)C(=O)N[C@@H](CC(N)=O)C(=O)N[C@@H]([C@@H](C)O)C(=O)N[C@@H](C)C(=O)N[C@@H]([C@@H](C)O)C(=O)N1)[C@@H](C)O)C(C)C)C(=O)N[C@@H](CC(C)C)C(=O)N1CCC[C@H]1C(=O)N[C@@H](CO)C(=O)N[C@H](C(=O)N[C@@H](CCCCN)C(=O)N[C@H](C(=O)NCC(=O)N[C@@H](CO)C(=O)N[C@@H](CC(N)=O)C(=O)N[C@H](C(=O)N[C@@H](Cc1ccc(O)cc1)C(N)=O)[C@@H](C)O)[C@@H](C)CC)[C@@H](C)O` [compound 180] (H-KCNTATCATQRLANFLVHSSNNFGAILPSTKIGSNTY-NH2; disulfide 2-7; N-terminus assumed), the figures for the pEC50 in assay [1] and in assay [2] were 10.09 and less than 5.30, respectively.
Consider `CC[C@H](C)[C@H](NC(=O)[C@H](CCC(N)=O)NC(=O)[C@H](Cc1c[nH]cn1)NC(=O)[C@H](C)NC(=O)[C@H](CC(C)C)NC(=O)[C@H](CCCNC(=N)N)NC(=O)[C@H](C)NC(=O)[C@@H](NC(=O)[C@@H](NC(=O)[C@@H]1CSSC[C@H](NC(=O)[C@H](CCCCN)NC(=O)CC[C@H](NC(=O)CCCCCCCCCCCCCCCCCCC(=O)O)C(=O)O)C(=O)N[C@@H](CC(N)=O)C(=O)N[C@@H]([C@@H](C)O)C(=O)N[C@@H](C)C(=O)N[C@@H]([C@@H](C)O)C(=O)N1)[C@@H](C)O)C(C)C)C(=O)N[C@@H](CC(N)=O)C(=O)N[C@@H](CCC(N)=O)C(=O)N[C@@H](Cc1ccccc1)C(=O)N[C@H](C(=O)N[C@@H](CC(=O)O)C(=O)N[C@@H](CCCCN)C(=O)N[C@@H](CC(=O)O)C(=O)N[C@@H](CCCCN)C(=O)N[C@@H](CC(=O)O)C(=O)N1CCC[C@H]1C(=O)N[C@H](C(=O)N[C@@H](C)C(=O)N1CCC[C@H]1C(=O)N1CCC[C@H]1C(=O)N[C@H](C(=O)N[C@@H](CC(N)=O)C(=O)N[C@H](C(=O)NCC(=O)N[C@@H](CO)C(=O)N[C@@H](CC(N)=O)C(=O)NCC(=O)N1C[C@H](O)C[C@H]1C(N)=O)C(C)C)[C@@H](C)O)C(C)C)[C@@H](C)O` [compound 137] ({C20 diacid-γGlu}-KCNTATCTVARLAHQINQFTDKDKDPVAPPTNVGSNG[Hyp]-NH2; disulfide 2-7), for which the pEC50 is 10.47 in assay [1] and less than 5.30 in assay [2].
